Results from patent US8652440B2, “Methods for diagnosing diseases and evaluating treatments therefor using PET” (The Trustees of Columbia University in the City of New York, priority 2007, dated 2014).
Read-outs that look alike come from different tables or passages of the source.

Biological target: central M2 cholinergic receptors (Homo sapiens, UniProt P08172)
Conditions: mean of 11 subjects; for K1 (rate constant for transfer from plasma to the tissue) / VT (total distribution volume) / K2 (tissue clearance rate constant): 1TKA
Excerpt: Synapse 49:150-156 (2003). […] Carson R E, Kiesewetter D O, Jagoda E, Der M G, Herscovitch P, Eckelman W C, Muscarinic cholinergic receptor measurements with [^18F]FP-TZTP: control and competition studies. […] J Nucl Med 40:30P (1999).
Step 1: To calculate group mean parameter values that can be used for computer simulation analysis, ROI TACs were fitted by one-tissue kinetic analysis “1TKA” using individual metabolite-corrected plasma input functions. The mean 1TKA parameter values from 11 subjects were then used to generate noise-free TAC data as described below in Step 3.
Step 2: ROI TAC percent noise was calculated based on deviations from 1TKA fitting (100×SD/mean) for the latter portion of the TAC (60 to 120 min) and the mean percent noise over these 11 subjects was calculated (Table 2).

Sequence of central M2 cholinergic receptors (P08172 whole entry): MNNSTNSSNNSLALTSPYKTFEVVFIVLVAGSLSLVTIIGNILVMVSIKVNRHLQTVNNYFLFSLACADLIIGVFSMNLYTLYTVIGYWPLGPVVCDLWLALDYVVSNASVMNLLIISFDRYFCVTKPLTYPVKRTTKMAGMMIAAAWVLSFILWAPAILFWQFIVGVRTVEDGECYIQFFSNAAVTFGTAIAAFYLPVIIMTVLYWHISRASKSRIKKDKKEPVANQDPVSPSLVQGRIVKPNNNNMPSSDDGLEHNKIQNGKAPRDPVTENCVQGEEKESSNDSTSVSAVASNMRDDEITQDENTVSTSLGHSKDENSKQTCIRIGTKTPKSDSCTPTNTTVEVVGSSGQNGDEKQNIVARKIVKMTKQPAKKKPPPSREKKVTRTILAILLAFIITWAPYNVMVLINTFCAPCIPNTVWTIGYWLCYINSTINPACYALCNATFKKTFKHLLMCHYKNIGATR

CN1CCC=C(c2nsnc2SCCC[18F])C1 [[^18F]FP-TZTP, 3-(3-(3-[18F]Fluropropyl)thio-1,2,5-thiadiazol-4-yl)-1,2,5,6 tetrahydro-1-methylpyridine]
K1 (rate constant for transfer from plasma to the tissue) (cerebellum (input region, K'1)): 0.466 mL/min/cm^3 | VT (total distribution volume) (cerebellum (input region, V'T)): 43 mL/cm^3 | K2 (tissue clearance rate constant) (cerebellum (input region, k'2)): 0.0110 min⁻¹ | k2/k′2 (thalamus k2 relative to cerebellum k′2): 1.60 | K1 (rate constant for transfer from plasma to the tissue) (thalamus): 0.506 mL/min/cm^3 | K2 (tissue clearance rate constant) (thalamus): 0.0176 min⁻¹ | VT (total distribution volume) (thalamus): 29 mL/cm^3
